Experiment [1] relates to C57BL/6 mice, recipient lungs. The experiment is described as follows: Assessment of GFP+ foci in chimeric lungs by morphometry after different conditioning regimens. The format is in vivo, mouse. The conditions noted are these: for engraftment / lung chimerism of donor-derived cells: conditioning with NA alone, 1×10^6 E16 lung cells 2 days after NA; for donor-derived foci: E16 lung cells. As to the method:
For lung injury studies, mice were given an intraperitoneal injection of naphthalene (NA) (more than 99% pure; Sigma-Aldrich), dissolved in corn oil, 200 mg per kg body weight, 40-48 hours before transplantation of embryonic lung tissue. For ‘double’ lung injury, naphthalene-treated animals were further irradiated in a cesium irradiator (Gammacell 40), (40-48 hours after naphthalene administration). C57BL/6, tdTomato (Gt(ROSA)26Sortm4(ACTB-tdTomato,-EGFP)Luo/J mice, and Rag1^−/− mice were irradiated with 6 Gy TBI, and NOD-SCID mice were irradiated 3-4 Gy TBI. Following conditioning with NA, TBI, or both, C57BL/6 mice were transplanted with 1×10^6 GFP-positive E15-E16 embryonic lung cells injected into the tail vein 4-8 hours following irradiation. Lungs were fixed with a 4% PFA solution introduced through the trachea under a constant pressure of 20 cm H2O. Then the lungs were immersed in fixative overnight at 4° C. Lungs were processed after PFA treatment and fixed in 30% sucrose and frozen in Optimal Cutting Temperature (OCT) compound (Sakura Finetek USA, Inc. Tissue-Tek). Serial step sections, 12 μm in thickness, were taken along the longitudinal axis of the lobe. The fixed distance between the sections was calculated so as to allow systematic sampling of at least 20 sections across the whole lung. Lung slices were analyzed by fluorescence microscopy. The actual number of GFP^+ foci (a group of more than 5 distinct GFP^+ cells was defined as a single patch) was counted per slice using Image Pro software. The area of each slice was estimated by Image Pro software, and the average area of slices and average frequency of GFP^+ patches in all the slices were assessed (patch(P)/Area(A) (mm2)), assuming that the frequency per area in a large number of slices reflects distribution per volume.

Experiment [2] has as its system endogenous lung progenitors. The experiment can be described thus: BrdU incorporation assay (lung cell proliferation in vivo). Details: species or system mouse. As to the method: Lung cell proliferation was measured in vivo by BrdU uptake. Briefly, control and four groups of experimental mice (7 days following naphthalene administration and 5 days after TBI) received a single dose of BrdU (Sigma) intraperitoneally 120 minutes before sacrifice (at a dose of 50 mg per kg of body weight). Lungs were excised, left lungs were enzymatically digested (using the same protocol as for embryonic tissue dissociation) for polychromatic FACS analysis, and right lungs were fixed with 4% PFA and processed for further immunofluorescence staining. Multiple serial slices were costained with anti-BrdU-FITC and anti-CCSP or anti-SPC antibodies. All FACS and immunohistochemical studies were done using the BrdU flow kit (BD Biosciences), according to the manufacturer's instructions. For morphometric analysis of CCSP^+BrdU^+ and SPC^+BrdU^+ cells, images were stained with anti-CCSP and anti-BrdU or anti-SPC and anti-BrdU antibodies and nuclei counterstained with Hoechst dye. The images were acquired by an observer blinded to the treatment groups, using an Olympus fluorescent microscope and Olympus digital camera (DP70) with a ×40 objective. At least 20 different stained random fields were counted for each marker.

The test system of another experiment is pulmonary Clara cells. The experiment is described as follows: Naphthalene lung injury model, ablation of Clara cells. Format: in vivo, mouse. As to conditions: naphthalene alone, C57BL mice. As to the method: For lung injury studies, mice were given an intraperitoneal injection of naphthalene (NA) (more than 99% pure; Sigma-Aldrich), dissolved in corn oil, 200 mg per kg body weight, 40-48 hours before transplantation of embryonic lung tissue. To that end, these cells were initially evaluated in a model based on injury induction with naphthalene, as previously described [[…] et al, American Journal of Physiology-Lung Cellular and Molecular Physiology. (1995) 269(6):791]. This lung injury model mimics lung diseases caused by mild epithelial injury, detectable by changes in the expression of pulmonary Clara cells. The particular anatomical localization of Clara cells in respiratory bronchioles and in broncho-alveolar junctions enabled to accurately localize the site of injury after naphthalene exposure, and to test the ability of a single cell suspension of embryonic “window” cells to colonize and restore the injured epithelial layer in syngeneic recipients.

With `c1ccc2ccccc2c1` [naphthalene], the “GFP positive patches (engraftment of donor-derived cells)” value in experiment [1] (NA and 6 Gy TBI vs TBI alone or NA alone, 30 days post transplant) is given as “markedly enhanced”. Besides, the entries for the “engraftment / lung chimerism of donor-derived cells” value in experiment [1] and in experiment [1] (listed as NA) were “could not enable significant engraftment” and “failed to attain a detectable level of lung chimerism”, respectively. The donor-derived foci in experiment [1] (conditioning with naphthalene alone, 30 days post transplant) is 10-12 foci/mm^3; in experiment [1] (conditioning with naphthalene and 6 Gy TBI, 30 days post transplant) it was 55 foci/mm^3. Moreover, the endogenous cell recovery entry in experiment [2] (6 Gy TBI 48 hrs after NA treatment) is “inhibited”. For the same compound, in experiment [2] (6 Gy TBI administered 48 hrs after NA), the “level of BrdU+ cells within endothelial, epithelial and mesenchymal lineages (FACS)” value is on record as “significantly reduced”. The “ablation of endogenous pool of progenitors” value in experiment [2] (6 Gy TBI prior to NA treatment) is listed as “did not effectively ablate the endogenous pool of progenitors”. Besides, the “endogenous BrdU+ proliferating cells” value in experiment [2] (NA alone, no transplantation) was “marked signal of endogenous BrdU^+ proliferating cells”. The “ablation of Clara cells” value in the experiment with pulmonary Clara cells was “transient”.

The values are drawn from US10668109B2, “Conditioning protocols and use of same for tissue regeneration” (Yeda Research and Development Co. Ltd., priority 2015, dated 2020).
